In brackets after ≈: the same amount, converted by molar mass. Several values for one entry are separate records, joined by “and”; a condition that tells them apart may be missing. Identical values can stand only once. Like-named read-outs stand apart in the source and are kept apart here.
Key:
S. aureus DSM2569 = test: MIC, standard microdilution assay, growing S. aureus; assay type: cell-based, Staphylococcus aureus; conditions: Staphylococcus aureus, DSM2569; S. aureus; CA-MHB pH 7.4; read-out: MIC (μM) CA-MHB
In short: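 Standard microdilution protocol, triplicate wells. For S. flexneri the growth medium is TSB. The other three strains are grown in HEPES-buffered (40 mM, pH 7.4) CA-MHB, and UPEC is also run at pH 5.5 in LPM containing 30 mM MES.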

non-growing UPEC CFT073 [1] = test: Dilution-regrowth assay (screen, hit validation, dose-response) on stationary-phase UPEC; assay type: cell-based, Escherichia coli; conditions: Escherichia coli, E. coli, regrowth delay of non-growing bacteria, 24 h treatment, OD600 6 h after 2500-fold dilution, read-out: EC50
In short: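 Regrowth (OD600 after 6 h, 37 °C) of diluted non-growing CFT073, following 24 h compound treatment of 24 h stationary cultures, defines activity relative to untreated control. Screen at 20 µM, validation at 20, 10, 5 µM (duplicates), dose–response in three biological replicates fitted by five-parameter logistic.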

non-growing UPEC CFT073 [2] = test: Dose-dependent killing analysis (CFU spot-plating) of stationary-phase UPEC; assay type: cell-based, Escherichia coli
In short: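 Non-growing (stationary-phase) UPEC CFT073 treated with compounds in 96-well format at 200 μl, then 10-fold serially diluted in PBS and 10 μl spots plated on LB agar. Plates incubated overnight at 37 °C; colonies counted at lowest resolvable dilution to give CFU. Three biological replicates.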

[3] = test system: non-growing P. aeruginosa DSM1117; test: Dose-dependent killing analysis (CFU spot-plating) of stationary-phase P. aeruginosa; assay type: cell-based, Pseudomonas aeruginosa; conditions: P. aeruginosa; for log10(CFU/ml) of treated nongrowing bacteria (single replicates): before treatment 8.887
In short: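 Stationary-phase P. aeruginosa DSM1117 treated for 24 h in 1:4 CA-MHB, pH 7.4, across compound doses. Survivors counted after 10-fold PBS dilution, spot-plating on LB agar and overnight growth at 37 °C; three biological replicates.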

[4] = test system: non-growing S. aureus DSM2569; test: Dose-dependent killing analysis (CFU spot-plating) of stationary-phase S. aureus; assay type: cell-based, Staphylococcus aureus; conditions: S. aureus; for log10(CFU/ml) of treated nongrowing bacteria (single replicates): before treatment 9,097
In short: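 Stationary-phase S. aureus DSM2569 was grown and treated for 24 h in 1:4 CA-MHB at pH 7.4. Treated samples were serially diluted 10-fold in PBS and spot-plated on LB agar, which was incubated overnight at 37 °C. Survivors were counted as CFU over three biological replicates.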

## NC1CCN(c2nc3c(cc2F)c(=O)c(C(=O)O)cn3-c2ccc(F)cc2F)C1 (stereo not shown) [Tosufloxacin]
S. aureus DSM2569
  MIC: 0.25 µM (≈ 0.101 µg/mL)
non-growing UPEC CFT073 [1]; LPM pH 5.5
  EC50: 10.3 µM
non-growing UPEC CFT073 [1]; pH 7.4, 1:4 CA-MHB
  EC50: 0.753 µM
non-growing UPEC CFT073 [2]; E. coli in 1:4 CA-MHB (pH 7.4), drug concentration 0.25
  killing, average Δlog10(CFU/ml): 0.576 log10(CFU/ml)
non-growing UPEC CFT073 [2]; E. coli in 1:4 CA-MHB (pH 7.4), drug concentration 0.25, before treatment 8.977
  log10(CFU/ml) of treated nongrowing bacteria (single replicates): 8.477 log10(CFU/ml) and 8.279 log10(CFU/ml) and 8.447 log10(CFU/ml)
non-growing UPEC CFT073 [2]; E. coli in 1:4 CA-MHB (pH 7.4), drug concentration 0.5
  killing, average Δlog10(CFU/ml): 0.736 log10(CFU/ml)
non-growing UPEC CFT073 [2]; E. coli in 1:4 CA-MHB (pH 7.4), drug concentration 0.5, before treatment 8.977
  log10(CFU/ml) of treated nongrowing bacteria (single replicates): 8.602 log10(CFU/ml) and 8.041 log10(CFU/ml) and 8.079 log10(CFU/ml)
non-growing UPEC CFT073 [2]; E. coli in 1:4 CA-MHB (pH 7.4), drug concentration 1
  killing, average Δlog10(CFU/ml): 1.185 log10(CFU/ml)
non-growing UPEC CFT073 [2]; E. coli in 1:4 CA-MHB (pH 7.4), drug concentration 1, before treatment 8.977
  log10(CFU/ml) of treated nongrowing bacteria (single replicates): 8.301 log10(CFU/ml) and 7.845 log10(CFU/ml) and 7.230 log10(CFU/ml)
non-growing UPEC CFT073 [2]; E. coli in 1:4 CA-MHB (pH 7.4), drug concentration 2.5
  killing, average Δlog10(CFU/ml): 2.064 log10(CFU/ml)
non-growing UPEC CFT073 [2]; E. coli in 1:4 CA-MHB (pH 7.4), drug concentration 2.5, before treatment 8.977
  log10(CFU/ml) of treated nongrowing bacteria (single replicates): 7.041 log10(CFU/ml) and 6.699 log10(CFU/ml) and 7.000 log10(CFU/ml)
non-growing UPEC CFT073 [2]; E. coli in 1:4 CA-MHB (pH 7.4), drug concentration 5
  killing, average Δlog10(CFU/ml): 2.460 log10(CFU/ml)
non-growing UPEC CFT073 [2]; E. coli in 1:4 CA-MHB (pH 7.4), drug concentration 5, before treatment 8.977
  log10(CFU/ml) of treated nongrowing bacteria (single replicates): 6.845 log10(CFU/ml) and 6.230 log10(CFU/ml) and 6.477 log10(CFU/ml)
non-growing UPEC CFT073 [2]; E. coli in 1:4 CA-MHB (pH 7.4), drug concentration 10
  killing, average Δlog10(CFU/ml): 2.856 log10(CFU/ml)
non-growing UPEC CFT073 [2]; E. coli in 1:4 CA-MHB (pH 7.4), drug concentration 10, before treatment 8.977
  log10(CFU/ml) of treated nongrowing bacteria (single replicates): 6.778 log10(CFU/ml) and 5.380 log10(CFU/ml) and 6.204 log10(CFU/ml)
non-growing UPEC CFT073 [2]; E. coli in LPM (pH 5.5), drug concentration 0.25
  killing, average Δlog10(CFU/ml): -0.097 log10(CFU/ml)
non-growing UPEC CFT073 [2]; E. coli in LPM (pH 5.5), drug concentration 0.25, before treatment 7.350
  log10(CFU/ml) of treated nongrowing bacteria (single replicates): 7.342 log10(CFU/ml) and 7.000 log10(CFU/ml) and 8.000 log10(CFU/ml)
non-growing UPEC CFT073 [2]; E. coli in LPM (pH 5.5), drug concentration 0.5
  killing, average Δlog10(CFU/ml): 0.356 log10(CFU/ml)
non-growing UPEC CFT073 [2]; E. coli in LPM (pH 5.5), drug concentration 0.5, before treatment 7.350
  log10(CFU/ml) of treated nongrowing bacteria (single replicates): 7.079 log10(CFU/ml) and 6.000 log10(CFU/ml) and 7.903 log10(CFU/ml)
non-growing UPEC CFT073 [2]; E. coli in LPM (pH 5.5), drug concentration 1
  killing, average Δlog10(CFU/ml): 0.195 log10(CFU/ml)
non-growing UPEC CFT073 [2]; E. coli in LPM (pH 5.5), drug concentration 1, before treatment 7.350
  log10(CFU/ml) of treated nongrowing bacteria (single replicates): 7.279 log10(CFU/ml) and 6.342 log10(CFU/ml) and 7.845 log10(CFU/ml)
non-growing UPEC CFT073 [2]; E. coli in LPM (pH 5.5), drug concentration 2.5
  killing, average Δlog10(CFU/ml): 0.183 log10(CFU/ml)
non-growing UPEC CFT073 [2]; E. coli in LPM (pH 5.5), drug concentration 2.5, before treatment 7.350
  log10(CFU/ml) of treated nongrowing bacteria (single replicates): 7.079 log10(CFU/ml) and 6.519 log10(CFU/ml) and 7.903 log10(CFU/ml)
non-growing UPEC CFT073 [2]; E. coli in LPM (pH 5.5), drug concentration 5
  killing, average Δlog10(CFU/ml): 0.243 log10(CFU/ml)
non-growing UPEC CFT073 [2]; E. coli in LPM (pH 5.5), drug concentration 5, before treatment 7.350
  log10(CFU/ml) of treated nongrowing bacteria (single replicates): 7.146 log10(CFU/ml) and 6.699 log10(CFU/ml) and 7.477 log10(CFU/ml)
non-growing UPEC CFT073 [2]; E. coli in LPM (pH 5.5), drug concentration 10
  killing, average Δlog10(CFU/ml): 0.735 log10(CFU/ml)
non-growing UPEC CFT073 [2]; E. coli in LPM (pH 5.5), drug concentration 10, before treatment 7.350
  log10(CFU/ml) of treated nongrowing bacteria (single replicates): 6.591 log10(CFU/ml) and 6.255 log10(CFU/ml) and 7.000 log10(CFU/ml)
[3]; drug concentration 0.1
  killing, average Δlog10(CFU/ml): 0.209 log10(CFU/ml)
  log10(CFU/ml) of treated nongrowing bacteria (single replicates): 8.477 log10(CFU/ml) and 8.954 log10(CFU/ml) and 8.602 log10(CFU/ml)
[3]; drug concentration 0.5
  killing, average Δlog10(CFU/ml): 1.194 log10(CFU/ml)
  log10(CFU/ml) of treated nongrowing bacteria (single replicates): 7.477 log10(CFU/ml) and 7.903 log10(CFU/ml) and 7.699 log10(CFU/ml)
[3]; drug concentration 2.5
  killing, average Δlog10(CFU/ml): 3.719 log10(CFU/ml)
  log10(CFU/ml) of treated nongrowing bacteria (single replicates): 5.602 log10(CFU/ml) (2×) and 4.301 log10(CFU/ml)
[3]; drug concentration 10
  killing, average Δlog10(CFU/ml): 4.787 log10(CFU/ml)
  log10(CFU/ml) of treated nongrowing bacteria (single replicates): =<4 log10(CFU/ml) (2×) and 4.301 log10(CFU/ml)
[4]; drug concentration 0.1
  killing, average Δlog10(CFU/ml): 0.037 log10(CFU/ml)
  log10(CFU/ml) of treated nongrowing bacteria (single replicates): 8.845 log10(CFU/ml) and 9.301 log10(CFU/ml) and 9.033 log10(CFU/ml)
[4]; drug concentration 0.5
  killing, average Δlog10(CFU/ml): 0.330 log10(CFU/ml)
  log10(CFU/ml) of treated nongrowing bacteria (single replicates): 8.690 log10(CFU/ml) and 8.869 log10(CFU/ml) and 8.740 log10(CFU/ml)
[4]; drug concentration 2.5
  killing, average Δlog10(CFU/ml): 0.522 log10(CFU/ml)
  log10(CFU/ml) of treated nongrowing bacteria (single replicates): 8.580 log10(CFU/ml) and 8.898 log10(CFU/ml) and 8.248 log10(CFU/ml)
[4]; drug concentration 10
  killing, average Δlog10(CFU/ml): 0.688 log10(CFU/ml)
  log10(CFU/ml) of treated nongrowing bacteria (single replicates): 8.531 log10(CFU/ml) and 8.663 log10(CFU/ml) and 8.033 log10(CFU/ml)

— PMC11992225, “Antibacterial compounds against non-growing and intracellular bacteria” (npj Antimicrobials and Resistance, 2025)
